# Results reported in ChEMBL document CHEMBL4414546, “Identification of Narciclasine as an in Vitro Anti-Inflammatory Component of Cyrtanthus contractus by Correlation-Based Metabolomics” (2019).
# The source made the active and inactive calls. The rule behind the calls is not given here.
# How the values were obtained:
# HUVEC [1] = experiment: Antiinflammatory activity in TNF-alpha-induced HUVEC assessed as fold change in COX2 expression at 7.2 nM preincubated for 30 mins followed by addition and measured after 30 mins by immunoblotting analysis (reference value: 0.50); format: functional, Homo sapiens
# HUVEC [2] = experiment: Antiinflammatory activity in HUVEC assessed as reduction in TNF-alpha-induced E-selectin cell surface expression at 7.2 nM preincubated for 30 mins followed by TNF-alpha addition and measured after 4 hrs by ELISA; format: functional, cell-based; details: Homo sapiens
# HUVEC [3] = experiment: Antiinflammatory activity in HUVEC assessed as reduction in TNF-alpha-induced E-selectin expression at 7.2 nM preincubated for 30 mins followed by TNF-alpha stimulation and measured after 30 mins by immunoblotting analysis; format: functional, cell-based; details: Homo sapiens
# HUVEC [4] = experiment: Antiinflammatory activity in HUVEC assessed as reduction in TNF-alpha-induced ICAM1 cell surface expression at 7.2 nM preincubated for 30 mins followed by TNF-alpha stimulation and measured after 24 hrs by flow cytometry; format: functional, cell-based; details: Homo sapiens
# HUVEC [5] = experiment: Effect on TNF-alpha-induced NFkappaB nuclear translocation in HUVEC at 7.2 nM preincubated for 30 mins followed by TNF-alpha stimulation and measured after 30 mins by fluorescence microscopic analysis; format: cell-based; details: Homo sapiens
# HUVEC [6] = experiment: Antiinflammatory activity in TNF-alpha-induced HUVEC assessed as fold change in IkappaBalpha expression at 7.2 nM preincubated for 30 mins followed by addition and measured after 30 mins by immunoblotting analysis (reference value: 0.50); format: functional, Homo sapiens
structure (smiles),measurement,setting,value
O=C1N[C@@H]2C(=C[C@H](O)[C@@H](O)[C@H]2O)c2cc3c(c(O)c21)OCO3 [NARCICLASINE],fold change (FC),HUVEC [1],0.8
same,inhibition,HUVEC [2],Active
same,inhibition,HUVEC [3],Active
same,inhibition,HUVEC [4],Active
same,Activity,HUVEC [5],inactive
same,fold change (FC),HUVEC [6],0.31
